Results from patent US6603023B2 (priority 1996, dated 2003).
Several values for one entry are separate records, joined by “and”; a condition that tells them apart may be missing. Equal entries are not always repeated. Structures can show the parent of a compound that is named as a salt. Where two headings read alike, the source gives them in different places. Marks after values point to notes of the source that are not given here.

How the values were obtained:
MCF-7 = experiment: SRB cytotoxicity, MCF-7; assay type: cell-based, human
Description: (§1) The cytotoxicity of the drug toward the monolayer cell cultures (such as DC-3F, MCF-7, SK-N-As and sublines) was determined in 96-well microtiter plates by the SRB method as described by Skehan and co-workers (Skehan, P., et al., J. Natl. Cancer Inst. 1990, 82, 1107-1112) for measuring the cellular protein content. Cultures were fixed with trichloroacetic acid and then stained for 30 min with 0.4% suforhodamine B dissolved in 1% acetic acid. Unbound dye was removed by acetic acid washes, and the protein-bound dye was extracted with an unbuffered Tris base (tris(hydroxy-methyl)aminomethane) for determination of absorbance at 570 nm in a 96-well microtiter plate reader. The experiments were carried out in duplicate. Each run entailed six to seven concentrations of the tested drugs. Data were analyzed with the median-effect plot (Chou, T.-C. & Talalay, P. T. (1984) Adv. Enzyme Regul. 22, 27-55) using a previously described computer program (Chou, J., & Chou T.-C. 1987, Dose-effect analysis with microcomputers: Quantitation of ED50, synergism, antagonism, low-dose risk, reception-ligand binding and enzyme kinetics, IBM-PC software and manual, Biosoft, Cambridge, U.K.).

[1] = test system: human neuroblastoma SK-N-As; experiment: SRB cytotoxicity, SK-N-As; assay type: cell-based; details: 72 h
Description: (§2) The DC-3F hamster lung fibroblast cell line and its actinomycin D-selected sublines (DC-3F/ADII and DC-3F/ADX) were obtained from the Memorial Sloan-Kettering Cancer Center (MSKCC).
(§3) The drug-resistant cell lines were continuously cultured in the presence of the selecting agent, AD, DX, VBL or VM to maintain the drug resistant phenotypes. […] All cells were cultured in RPMI 1640-10% FBS at 37° C. 5% CO2 (see below).
as §1

DC-3F/ADX = experiment: cells; assay type: cell-based, hamster
Summary of the method: (§4)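 Hamster lung fibroblast DC-3F sublines selected with actinomycin D (ADII moderate, ADX very strong MDR), maintained under selecting agent in RPMI 1640-10% FBS at 37° C. Monolayers exposed to six to seven drug concentrations in duplicate, TCA-fixed, stained with 0.4% SRB; absorbance 570 nm, analyzed by median-effect plot.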

[2] = test system: DC-3F hamster lung fibroblast cell line; experiment: SRB cytotoxicity, DC-3F; assay type: cell-based
Summary of the method: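 Monolayer cultures grown in RPMI 1640-10% FBS at 37 °C, 5% CO2, with resistant sublines kept under their selecting agent. Cytotoxicity determined by SRB protein staining (TCA fixation, absorbance 570 nm) in duplicate at six to seven drug concentrations. ED50 obtained by median-effect plot analysis.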

[3] = test system: human mammary carcinoma MX-1 xenograft
Description: (§5) DMSO was used as a vehicle for epothilones. Each mouse received ≦40 μL DMSO in all experiments.
(§6) Athymic nude mice (nu/nu) were used for MX-1 and MCF-7/Adr human mammary carcinoma xenografts. Mice were obtained from Taconic Laboratory Animals and Service (Germantown, N.Y.: outbred, Swiss background).

P388/Adr = experiment: cells; assay type: cell-based, murine; details: for IC50: 72 h
Description: as §3
(§7) The cells were cultured at an initial density of 5×10^4 cells/mL. They were maintained in a 5% CO2-humidified atmosphere at 37° C. in RPMI-1640 medium (GIBCO-BRL, Gaithersburg, Md.) containing penicillin (100 U/mL), streptomycin ([…]) (GIBCO-BRL) and 10% heat inactivate fetal bovine serum. Culture for cell suspension (such as for CCRF-CEM, P388 and sublines), were performed by the XTT-microculture tetrazonium method (Scudiero, D. A. et al., Cancer Res. 1988, 48, 4827-4833) in duplicate in 96-well microtiter plates.
(§8) 2′,3′-Bis(methoxy-4-nitro-5-sufophenyl)-5-[(phenylamino)carbonyl]2H-tetrazolium hyudroxide (XTT) was prepared at 1 mg/mL in prewarmed (37° C.) medium without serum. Phenazine methosulfate (PMS) and fresh XTT were mixed together to obtain 0.025 mM PMS-XTT solution (25 μL of the stock 5 mM PMS was added per 5 mL of 1 mg/mL XTT). Following a 72 h incubation, 50 μL of the assay aliquots were added to each well of the cell culture. After incubation at 37° C. for 4 h, absorbance at 450 nm and 630 nm was measured with a microplate reader (EL340, Bio-Tek Instruments, Inc., Winooski, Vt.).

[4] = test system: MDR human mammary adenocarcinoma MCF-7/Adr xenograft; experiment: in vivo
Description: as §5, §6

in vivo = details: male, athymic nude (nu/nu), outbred, Swiss background, mouse, in vivo, ip
Description: as §5, §6

murine leukemic P388/0 = experiment: XTT cytotoxicity, P388/0; assay type: cell-based
Description: as §2, §3, §7, §8

SK-N-FI = experiment: cells; assay type: cell-based, human; details: for IC50: 72 h
Description: as §3, §1

CCRF-CEM/VM1 = experiment: cells; assay type: cell-based, human
Summary of the method: (§9)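 Suspension leukemic cells (CCRF-CEM, P388 and drug-resistant sublines kept under the selecting agent) were seeded at 5×10^4 cells/mL in RPMI-1640 with 10% FBS at 37 °C. After 72 h drug exposure in duplicate, PMS-XTT was added for 4 h. Absorbance was read at 450 and 630 nm.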

CCRF-CEM/Taxol® = experiment: cells; assay type: cell-based, human; details: for IC50: 72 h
Summary of the method: as §9

CCRF-CEM/VBL100 = experiment: cells; assay type: cell-based, human
Summary of the method: as §9

[5] = test system: CCRF-CEM human T-cell acute lymphoblastic leukemia cell line; experiment: XTT cytotoxicity (cell growth inhibition), CCRF-CEM
Summary of the method: as §9

MCF-7/Adr = experiment: cells; assay type: cell-based, human; details: for IC50: 72 h
Description: Cultures were fixed with trichloroacetic acid and then stained for 30 min with 0.4% suforhodamine B dissolved in 1% acetic acid. Unbound dye was removed by acetic acid washes, and the protein-bound dye was extracted with an unbuffered Tris base (tris(hydroxy-methyl)aminomethane) for determination of absorbance at 570 nm in a 96-well microtiter plate reader. The experiments were carried out in duplicate. Each run entailed six to seven concentrations of the tested drugs.

DC-3F/ADII = experiment: SRB cytotoxicity, DC-3F/ADII; assay type: cell-based, hamster; details: Table 3; read-out: IC50
Summary of the method: as §4

[6] = male, athymic nude (nu/nu), outbred, Swiss background, mouse, in vivo
[7] = high doses: Taxol 12, Adriamycin 3, Camptothecin 3.0 mg/kg i.p. day 8,10,12,14,16
[8] = Homo sapiens, CCRF-CEM, 72 h, Table 1A, XTT
[9] = Table 1C, SRB, 72 h, read-out: IC50
[10] = Table 1A, XTT, 72 h, read-out: IC50
[11] = Table 6, single determinations, read-out: IC50

COc1cccc2c1C(=O)c1c(O)c3c(c(O)c1C2=O)C[C@@](O)(C(=O)CO)C[C@@H]3O[C@H]1C[C@H](N)[C@H](O)[C@H](C)O1 [Adriamycin, doxorubicin or adriamycin HCl]
IC50 (MCF-7; Homo sapiens, MCF7, 72 h): 57 nM
IC50 ([1]; Homo sapiens, SK-N-AS): 77 nM
IC50 (DC-3F/ADX; DC3F/ADX, 72 h, Table 1C, SRB): 2240 nM
IC50 ([2]; Mesocricetus auratus, DC3F, 72 h, Table 1C, SRB): 18 nM
Tumor Disappearance ([3]; 2 mg/kg i.p. d8,10,12,14,16): 1/10
Tumor Disappearance ([3]; 3 mg/kg i.p. d8,10,12,14,16): 4/6
tumor volume reduction ([3]; adriamycin 2 mg/kg i.p. Q2Dx5 from day 8): 28%
lethality [3, 6]: 4/6
lethality (mice died of toxicity) [3, 6]: 1/10
IC50 (P388/Adr; Mus musculus, P388/ADR): 2650 nM
tumor growth suppression ([4]; DX 2 mg/kg): slight growth suppression
Average Tumor Volume (T/C), Day 11 [4, 7]: 0.66 T/C
Average Tumor Volume (T/C), Day 13 [4, 7]: 0.83 T/C
Average Tumor Volume (T/C), Day 15 [4, 7]: 0.57 T/C
Average Tumor Volume (T/C), Day 17 [4, 7]: 0.53 T/C
lethality [4, 6]: 3/6
tumor size reduction ([4]; mouse, in vivo): 22%
Average Tumor Size (T/C) ([4]; mouse, in vivo, HCl): 0.78 and 0.70 and 0.68 and 0.84 and 0.53 and 0.66 and 0.83 and 0.57
LD50 (in vivo): 3 mg/kg
IC50 (murine leukemic P388/0; Mus musculus, P388, 72 h): 5.5 nM
IC50 (SK-N-FI; Homo sapiens, SK-N-FI): 1420 nM
IC50 (CCRF-CEM/VM1; [8]): 128 nM
IC50 (CCRF-CEM/Taxol®; Homo sapiens, CCRF-CEM): 82 nM
IC50 (CCRF-CEM/VBL100; [8]): 1740 nM
IC50 [5, 8]: 36 nM
IC50 (MCF-7/Adr; Homo sapiens, NCI/ADR-RES): 216 nM

C/C(=C\c1csc(C)n1)[C@@H]1C/C=C\CCC[C@H](C)[C@H](O)[C@@H](C)C(=O)C(C)(C)[C@@H](O)CC(=O)O1 [Desoxyepothilone A, desoxyepothilone A]
IC50 (MCF-7; [9]): 32 nM
IC50 ([1]; Table 1C, SRB, read-out: IC50): 73 nM
IC50 (DC-3F/ADII): 19.8 nM
folds of resistance (IC50 ratio vs parent cell line) (DC-3F/ADX; Table 1C, DC-3F/ADX vs DC-3F): (3.9x)
IC50 (DC-3F/ADX; [9]): 42 nM
IC50 (DC-3F/ADX; Table 3, read-out: IC50): 42 nM
IC50 [2, 9]: 11 nM
IC50 ([2]; Table 3, read-out: IC50): 10.6 nM
folds of resistance (IC50 ratio vs parent cell line) (P388/Adr; Table 1C, P388/Adr vs P388/O): (0.59x)
IC50 (P388/Adr; Table 1C, XTT, read-out: IC50): 12.5 nM
IC50 (murine leukemic P388/0; Table 1C, XTT, 72 h, read-out: IC50): 21.3 nM
folds of resistance (IC50 ratio vs parent cell line) (SK-N-FI; Table 1C, SK-N-FI vs SK-N-As): (3.1x)
IC50 (SK-N-FI; Table 1C, SRB, read-out: IC50): 223 nM
IC50 (CCRF-CEM/VM1; Table 1, XTT, read-out: IC50): 13 nM
(D)/(A) IC50 ratio (CCRF-CEM/VM1; Table 1A, CCRF-CEM/VM1 vs CCRF-CEM): 0.59
IC50 (CCRF-CEM/VM1; [10]): 13 nM
IC50 (CCRF-CEM/VM1; Table 2, CCR-CEM/VM-1, read-out: IC50): 13 nM
(C)/(A) ratio (fold resistance >1, collateral sensitivity <1) (CCRF-CEM/VM1; Table 2A): (0.59)^b
IC50 (CCRF-CEM/VM1; Table 2A, Topo II gene mutated cell line, read-out: IC50 (C)): 13 nM
IC50 (CCRF-CEM/VM1; [11]): 13 nM
(C)/(A) IC50 ratio (CCRF-CEM/Taxol®; Table 1A, CCRF-CEM/Taxol vs CCRF-CEM): 0.7
IC50 (CCRF-CEM/Taxol®; Table 1A, XTT, read-out: IC50): 15 nM
IC50 (CCRF-CEM/VBL100; Table 1, XTT, read-out: IC50): 12 nM
(B)/(A) IC50 ratio (CCRF-CEM/VBL100; Table 1A, CCRF-CEM/VBL100 vs CCRF-CEM): 0.55
IC50 (CCRF-CEM/VBL100; [10]): 12 nM
IC50 (CCRF-CEM/VBL100; Table 2, CCRF-CEM/VLB, read-out: IC50): 12 nM
(B)/(A) ratio (fold resistance >1, collateral sensitivity <1) (CCRF-CEM/VBL100; Table 2A): (0.55)^b
IC50 (CCRF-CEM/VBL100; Table 2A, MDR cell line, read-out: IC50 (B)): 12 nM
IC50 (CCRF-CEM/VBL100; [11]): 12 nM
IC50 (CCRF-CEM/VBL100; Table 7, CEM/VBL, read-out: IC50): 12 nM
IC50 (CCRF-CEM/VBL100; read-out: IC50): 12 nM
IC50 [5]: 22 nM
IC50 ([5]; Table 1, XTT): 22 nM
IC50 ([5]; Table 1A, XTT, 72 h): 22 nM
IC50 ([5]; Table 2): 2 nM
IC50 ([5]; Table 6, single determinations): 22 nM
IC50 ([5]; Table 7, CEM): 22 nM
IC50 ([5]; read-out: IC50 (A), Table 2A, parent cell line): 22 nM
folds of resistance (IC50 ratio vs parent cell line) (MCF-7/Adr; Table 1C, MCF-7/Adr vs MCF-7): (4.5x)
IC50 (MCF-7/Adr; Table 1C, SRB, read-out: IC50): 144 nM
